Patent US6878713B2, “Generation triple-targeting, chiral, broad-spectrum antimicrobial 7-substituted piperidino-quinolone carboxylic acid derivatives, their preparation, compositions and use as medicaments” (Wockhardt Limited, priority 2001, dated 2005)
Converted amounts (≈) assume the structure as drawn. Like-named read-outs stand apart in the source and are kept apart here.

What was measured:
[1] = test system: Fluoroquinolone Sensitive Strains; assay: In-vitro antimicrobial test (MIC, two-fold serial agar dilution, NCCLS), Table 17; format: cell-based; conditions: for MICs: hydrochloride
Experimental: (§1) The test method was in accordance with the standard NCCLS protocol (Methods for Dilution Antimicrobial Susceptibility Tests for Bacteria that grow Aerobicially, Approved Standards, M7-A5, Fifth Edition, January 2000).
(§2) The antibacterial activities (minimum inhibitory concentration: MIC, […]) were determined by using the two-fold serial agar dilution method recommended by NCCLS. The media used for preculture and main culture were Tryptic Soya broth (Difco) and Mueller Hinton medium (Difco), respectively. The Mueller Hinton agar was supplemented with 5% sheep blood for streptococci. Overnight cultures were diluted with buffered saline (pH 7.2) to the final cell density of 5×10^6-10^7 CFU/ml, and each bacterial suspension was applied with a replicator (Denley's multipoint inoculator, UK) onto a series of Mueller-Hinton agar plates containing antibacterial agents at various concentrations. Final inoculum was approximately 10^4 CFU/spot. The plates were incubated for 18 hrs at 37° C. The MIC was defined as the lowest concentration of an antibacterial agent that inhibits the development of visible microbial growth on agar.

[2] = test system: V79 (Chinese Hamster Lung); assay: Cytotoxicity test (Alamar blue), V79 cells, Table 23; format: cell-based; conditions: 3 hrs drug exposure, further 96 hrs incubation
Experimental: Compounds were evaluated for their cytotoxic potential against two […] viz. […] Cells were grown for 3-4days in a culture flask using D-MEM (Dulbecco's Modified Eagle. […] Freshly grown cells were distributed in microtiter plates at a cell density of 10^5-10^6 cells/well and allowed to […] form monolayer by incubating the microtiter plate at […] for 24 hrs. […] Following 3 hrs. of drug exposure, cell were washed with D-MEM and incubated further for 96 hrs. Cytotoxic effects of drugs were monitored through daily microscopic observation and by ascertaining the metabolic status through redox indicator Alamar blue. Healthy actively metabolising cells bring about colour change of Alamar blue from blue to pink within an overnight incubation. Cytotoxic drugs inhibit this reaction resulting into blue coloured well. Minimum drug concentration inhibiting Alamar blue color change i.e. resulting into blue coloured wells for a given drug is considered cytotoxic concentration.

J 744 (mouse macrophage) = assay: Cytotoxicity test (Alamar blue), J 744 cells, Table 23; format: cell-based; conditions: 3 hrs drug exposure, further 96 hrs incubation
Experimental: Compounds were evaluated for their cytotoxic potential against two celllines viz. […] Cytotoxic drugs inhibit this reaction resulting into blue coloured well. Minimum drug concentration inhibiting Alamar blue color change i.e. resulting into blue coloured wells for a given drug is considered cytotoxic concentration.

[3] = test system: Multidrug-Resistant (MDR) Pneumococcal Infections; assay: In-vivo antimicrobial test, systemic infection model (mouse septicemia), Table 22; design: species or system Swiss male and female mice; conditions: oral dosing 1 hour and 5 hours post-infection, survival on day 7, strain resistant to β-lactams, macrolides and fluoroquinolones; for ED50: Streptococcus pneumoniae, po, read-out: ED50 p.o., MDR S. pneumoniae 718; for ED50 p.o., MDR S. pneumoniae 718: hydrochloride
Experimental: The in vivo efficacy was studied through mouse septicemia model of infection in Swiss male and female mice (4 weeks old, 20+2 g weight) using 6 animals in each group. Infective organisms were inoculated intraperitonially. Compound were administered by oral route 1 hour and 5 hours post-infection. […] Appropriate comparators were included in the study.

[4] = test system: Fluoroquinolone-Resistant Strains; assay: In-vitro antimicrobial test (MIC, two-fold serial agar dilution, NCCLS), Table 18; format: cell-based
Experimental: as §1, §2

[5] = test system: Trovafloxacin-Resistant and Vancomycin-Resistant Enterococci; assay: In-vitro antimicrobial test (MIC, two-fold serial agar dilution, NCCLS), Table 19; format: cell-based
Text: The comparative antimicrobial activity of representative compounds, of the invention and reference compounds against various sensitive and resistant microorganisms is given in Tables 17 to 20. The test method was in accordance with the standard NCCLS protocol (Methods for Dilution Antimicrobial Susceptibility Tests for Bacteria that grow Aerobicially, Approved Standards, M7-A5, Fifth Edition, January 2000).
as §2

[6] = Enterococcus faecalis, ATCC29212, E. faecalis ATCC 29212
[7] = Escherichia coli, ATCC25922, E. coli ATCC 25922
[8] = Pseudomonas aeruginosa, P. aeruginosa 27853
[9] = S. sanguis ATCC 10556 (Viridans Streptococci group)
[10] = Staphylococcus aureus, ATCC 25923 / MSSA, MSSA ATCC 25923
[11] = Streptococcus pneumoniae, ATCC49619, S. pneumoniae ATCC 49619
[12] = Staphylococcus aureus, MRSA, MRSA 032
[13] = Streptococcus mitis, Cipro^R S. mitis 938
[14] = Streptococcus pneumoniae, FQ^R S. pneumoniae 718
[15] = Staphylococcus epidermidis, trovafloxacin-resistant methicillin-resistant S. epidermidis (MRSE) 110, 18 hrs at 37° C, read-out: MICs, Trova-Resist MRSE 110
[16] = vancomycin-resistant Enterococcus faecium (VRE) 336, 18 hrs at 37° C, read-out: MICs, VRE 336
[17] = Cipro^R S. sanguis 941, hydrochloride

Row | Compound | MIC [1, 6] [µg/mL] | MIC [1, 7] [µg/mL] | MIC [1, 8] [µg/mL] | MIC [1, 9] [µg/mL] | MIC [1, 10] [µg/mL] | MIC [1, 11] [µg/mL] | Cytotoxic concentration, V 79 CHL [2] [µg/mL] | Cytotoxic concentration, J 744 Macrophage (J 744 (mouse macrophage)) [µg/mL] | ED50 [3] [mg/kg] | MIC ([4]; Cipro^R S. sanguis 941) [µg/mL] | MIC [4, 12] [µg/mL] | MIC [4, 13] [µg/mL] | MIC [4, 14] [µg/mL] | melting point [°C] | further results
1 | Cc1c(N2CCC(N)C(C)(C)C2)c(F)cc2c(=O)c(C(=O)O)cn(C3CC3)c12.Cl (racemic) [Compound 102, (±)-1-Cyclopropyl-6-fluoro-1,4-dihydro-8-methyl-7-(4-amino-3,3-dimethyl-1-piperidinyl)-4-oxo-quinoline-3-carboxylic acid hydrochloride] | 0.05 | 0.025 | 3.12 | 0.025 | 0.025 | 0.025 | 750 | 1000 | 30 | 1.56 | 0.8 | 1.56 | 0.8 |  | 
2 | Cc1c(N2CC[C@H](O)[C@H](C)C2)c(F)cc2c(=O)c(C(=O)O)cn(C3CC3)c12 (relative stereo) [Compound 93, cis-1-Cyclopropyl-6-fluoro-8-methyl-7-(4-hydroxy-3-methyl-1-piperidinyl)-1,4-dihydro-4-oxo-quinoline-3-carboxylic acid] | 0.05 (≈ 0.134 µM) | 0.2 (≈ 0.534 µM) | 3.12 (≈ 8.33 µM) | 0.05 (≈ 0.134 µM) | 0.003 (≈ 0.00801 µM) | 0.025 (≈ 0.0668 µM) | >1000 | >1000 |  | 0.4 (≈ 1.07 µM) | 0.2 (≈ 0.534 µM) | 0.4 (≈ 1.07 µM) | 0.8 (≈ 2.14 µM) | 206 to 210 | MIC [5, 15]: 0.4 µg/mL (≈ 1.07 µM); MIC [5, 16]: 3.12 µg/mL (≈ 8.33 µM)
3 | Cc1c(N2CC[C@@H](O)[C@H](C)C2)c(F)cc2c(=O)c(C(=O)O)cn(C3CC3)c12 (relative stereo) [Compound 94, trans-1-Cyclopropyl-6-fluoro-8-methyl-7-(4-hydroxy-3-methyl-1-piperidinyl)-1,4-dihydro-4-oxo-quinoline-3-carboxylic acid] | 0.1 (≈ 0.267 µM) | 0.2 (≈ 0.534 µM) | 3.12 (≈ 8.33 µM) | 0.025 (≈ 0.0668 µM) | 0.003 (≈ 0.00801 µM) | 0.025 (≈ 0.0668 µM) | >1000 | >1000 |  | 0.4 (≈ 1.07 µM) | 0.2 (≈ 0.534 µM) | 0.4 (≈ 1.07 µM) | 0.8 (≈ 2.14 µM) |  | MIC [5, 15]: 0.4 µg/mL (≈ 1.07 µM); MIC [5, 16]: 3.12 µg/mL (≈ 8.33 µM)
4 | Cc1c(N2CC[C@H](N)[C@H](C)C2)c(F)cc2c(=O)c(C(=O)O)cn(C3CC3)c12.Cl (relative stereo) [Compound 100, cis-1-Cyclopropyl-6-fluoro-1,4-dihydro-8-methyl-7-(4-amino-3-methyl-1-piperidinyl)-4-oxo-quinoline-3-carboxylic acid hydrochloride] | 0.1 | 0.0012 | 3.12 | 0.025 | 0.025 | 0.05 | 125 | 1000 | 30 | 3.12 | 1.56 | 1.56 | 1.56 | 255 to 260 | 
5 | Cc1c(N2CC[C@@H](N)[C@H](C)C2)c(F)cc2c(=O)c(C(=O)O)cn(C3CC3)c12 (single isomer, unassigned) [Compound 97, trans-1-Cyclopropyl-6-fluoro-1,4-dihydro-8-methyl-7-(4-amino-3-methyl-1-piperidinyl)-4-oxo-quinoline-3-carboxylic acid] | 0.2 (≈ 0.536 µM) | 0.4 (≈ 1.07 µM) | 12.5 (≈ 33.5 µM) | 0.2 (≈ 0.536 µM) | 0.012 (≈ 0.0321 µM) | 0.1 (≈ 0.268 µM) | >1000 | >1000 |  | 3.12 (≈ 8.36 µM) | 0.8 (≈ 2.14 µM) | 3.12 (≈ 8.36 µM) | 3.12 (≈ 8.36 µM) | 223 to 225 | 
6 | Cc1c(N2CC[C@@H](N)[C@H](C)C2)c(F)cc2c(=O)c(C(=O)O)cn(C3CC3)c12.Cl (single isomer, unassigned) [Compound 98, trans-1-Cyclopropyl-6-fluoro-1,4-dihydro-8-methyl-7-(4-amino-3-methyl-1-piperidinyl)-4-oxo-quinoline-3-carboxylic acid hydrochloride] | 0.1 | 0.006 | 1.56 | 0.025 | 0.025 | 0.05 | 250 | 1000 |  | 3.12 | 1.56 | 1.56 | 1.56 | 262 to 265 | 
7 | COc1c(N2CCC(N)C(C)(C)C2)c(F)cc2c(=O)c(C(=O)O)cn(C3CC3)c12.Cl (single isomer, unassigned; (+)) [Compound 22, (+)-1-Cyclopropyl-6-fluoro-1,4-dihydro-8-methoxy-7-(4-amino-3,3-dimethyl-1-piperidinyl)-4-oxo-quinoline-3-carboxylic acid hydrochloride] |  |  |  |  |  |  |  | >1000 |  |  |  | 0.8 |  |  | Cytotoxic concentration, V 79 CHL ([2]; hydrochloride): 1000 µg/mL; ED50 p.o., MDR S. pneumoniae 718 [3]: 20 mg/kg; MICs [4, 17]: 0.2 µg/mL; MICs ([4]; MRSA 032): 0.8 µg/mL
8 | Cc1c(N2CCC(N)C(C)(C)C2)c(F)cc2c(=O)c(C(=O)O)cn(C3CC3)c12.Cl (single isomer, unassigned; (+)) [Compound 106, (+)-1-Cyclopropyl-6-fluoro-1,4-dihydro-8-methyl-7-(4-amino-3,3-dimethyl-1-piperidinyl)-4-oxo-quinoline-3-carboxylic acid hydrochloride] |  | 0.05 |  | 0.1 | 0.025 |  |  |  |  |  |  |  |  |  | MICs ([1]; E. faecalis ATCC 29212): 0.2 µg/mL; MICs ([1]; P. aeruginosa 27853): 6.25 µg/mL; MICs ([1]; S. pneumoniae ATCC 49619): 0.1 µg/mL; Cytotoxic concentration, V 79 CHL ([2]; hydrochloride): >1000 µg/mL; Cytotoxic concentration, J 744 Macrophage (J 744 (mouse macrophage); hydrochloride): >1000 µg/mL; MICs ([4]; Cipro^R S. mitis 938, hydrochloride): 6.25 µg/mL; MICs [4, 17]: 6.25 µg/mL; MICs ([4]; FQ^R S. pneumoniae 718, hydrochloride): 1.56 µg/mL; MICs ([4]; MRSA 032, hydrochloride): 1.56 µg/mL
9 | COc1c(N2CCC(N)C(C)(C)C2)c(F)cc2c(=O)c(C(=O)O)cn(C3CC3)c12.Cl (single isomer, unassigned; (-)) [Compound 26, (−)-1-Cyclopropyl-6-fluoro-1,4-dihydro-8-methoxy-7-(4-amino-3,3-dimethyl-1-piperidinyl)-4-oxo-quinoline-3-carboxylic acid hydrochloride] |  |  |  |  |  |  |  | >1000 |  |  | 0.8 |  | 0.8 |  | Cytotoxic concentration, V 79 CHL ([2]; hydrochloride): >1000 µg/mL; ED50 p.o., MDR S. pneumoniae 718 [3]: 50 mg/kg
10 | COc1c(N2CCNC(C)C2)c(F)cc2c(=O)c(C(=O)O)cn(C3CC3)c12 (stereo not drawn) [Gatifloxacin] |  |  |  |  |  |  |  |  | > 100 |  |  |  |  |  | 
11 | C[C@H]1COc2c(N3CCN(C)CC3)c(F)cc3c(=O)c(C(=O)O)cn1c23 [S-(−)-levofloxacin, reference compound] | 0.8 (≈ 2.21 µM) | 0.025 (≈ 0.0692 µM) | 3.12 (≈ 8.63 µM) | 1.56 (≈ 4.32 µM) | 0.2 (≈ 0.553 µM) | 0.8 (≈ 2.21 µM) |  |  | > 100 | 12.5 (≈ 34.6 µM) | 6.25 (≈ 17.3 µM) | 25 (≈ 69.2 µM) | 12.5 (≈ 34.6 µM) |  | 
